In ChEMBL document CHEMBL3867478, “ProTides of BVdU as potential anticancer agents upon efficient intracellular delivery of their activated metabolites” (Bioorg Med Chem Lett, 2016):

test: Drug level in pH 7.6 trizma buffer treated with 5 mg (E)-5-(2-bromovinyl)-2'-deoxyuridine-5'-(1-naphthyl(methoxy-L-tryptophanyl)-phosphate assessed as carboxypeptidase Y (unknown origin)-mediated compound formation measured every 7 mins for 14 hrs by [31P]-NMR spectroscopic analysis; assay type: ADME; conditions: pH 7.6, 14 h

Q: With `O=C(O)C(Cc1c[nH]c2ccccc12)NP(=O)(OC[C@H]1O[C@@H](n2cc(/C=C/Br)c(=O)[nH]c2=O)C[C@@H]1O)Oc1cccc2ccccc12` (stereo partly drawn) as the compound, how does the Drug metabolism read?
A: Its Drug metabolism is “Metabolite_Detected”.

Q: With `O=C1OP(=O)(OC[C@H]2O[C@@H](n3cc(/C=C/Br)c(=O)[nH]c3=O)C[C@@H]2O)NC1Cc1c[nH]c2ccccc12` (stereo partly drawn) as the compound, how does the Drug metabolism read?
A: Its Drug metabolism is “Metabolite_Detected”.

Q: With `O=C(O)C(Cc1c[nH]c2ccccc12)NP(=O)(O)OC[C@H]1O[C@@H](n2cc(/C=C/Br)c(=O)[nH]c2=O)C[C@@H]1O` (stereo partly drawn) as the compound, how does the Drug metabolism read?
A: Its Drug metabolism is “Metabolite_Detected”.
